Source: patent US8912121B2, “Herbicidal compositions comprising 4-amino-3-chloro-5-fluoro-6-(4-chloro-2-fluoro-3-methoxyphenyl)pyridine-2-carboxylic acid or a derivative thereof and certain PS II inhibitors” (Dow Agrosciences LLC, priority 2012, dated 2014)

Columns and labels:
Assay in all cases: Pre-emergence soil-applied mixtures, greenhouse
[1] = test system: SETVI (Setaria viridis, green foxtail); assay type: in vivo, Setaria viridis (L.) Beauv.; settings: Diuron 280 g ai/ha
Excerpt: (§1) Seeds or nutlets of the desired test plant species were planted in a soil matrix prepared by mixing a loam soil (32 percent silt, 23 percent clay, and 45 percent sand, with a pH of about 6.5 and an organic matter content of about 1.9 percent) and calcareous grit in an 80 to 20 ratio. The soil matrix was contained in plastic pots with a volume of 1 quart and a surface area of 83.6 square centimeters (cm^2).
(§2) Treatments consisted of the benzyl ester of 4-amino-3-chloro-5-fluoro-6-(4-chloro-2-fluoro-3-methoxy-phenyl)pyridine-2-carboxylic acid (compound A) formulated as an SC (suspension concentrate) and various herbicidal components alone and in combination. Forms of compound A were applied on an acid equivalent basis.
(§3) Other herbicidal components were applied on an acid equivalent or active ingredient basis and included the PSII-inhibiting herbicides, atrazine formulated as Atrazine® 90WDG, metribuzin formulated as Metribuzin 75DF, simazine formulated as Princep Caliber 90, tebuthiuron formulated as Spike 80DF, cyanazine (technical grade material), hexazinone (technical grade material), linuron (technical grade material), terbuthylazine (technical grade material), and diuron formulated as Diuron 4L.
(§4) Treatment requirements were calculated based upon the rates being tested, the concentration of active ingredient or acid equivalent in the formulation, and a 12 mL application volume at a rate of 187 L/ha.
(§5) For treatments comprised of formulated compounds, measured amounts of compounds were placed individually in 25 mL glass vials and diluted in a volume of 1.25% (v/v) Agri-Dex® crop oil concentrate (COC) to obtain 12× stock solutions. […]
(§6) For treatments comprised of formulated and technical compounds, weighed amounts of the technical materials can be placed individually in 25 mL glass vials and dissolved in a volume of 97:3 (v/v) acetone/DMSO to obtain 12× stock solutions, and measured amounts of the formulated compounds can be placed individually in 25 mL glass vials and diluted in a volume of 1.5% (v/v) COC or water to obtain 12× stock solutions. […]

[2] = test system: SETFA (Setaria faberi, giant foxtail); assay type: in vivo, Setaria faberi Herrm.; settings: Diuron 280 g ai/ha; 29 DAA
Excerpt: as §1, §2, §3, §4
(§7) For treatments comprised of formulated compounds, measured amounts of compounds were placed individually in 25 mL glass vials and diluted in a volume of 1.25% (v/v) Agri-Dex® crop oil concentrate (COC) to obtain 12× stock solutions. […] Application solutions were prepared by adding an appropriate amount of each stock solution (e.g., 1 mL) and diluted to the appropriate final concentrations with the addition of 10 mL of an aqueous mixture of 1.25% (v/v) COC so that the final spray solutions contained 1.25% (v/v) COC.
(§8) For treatments comprised of technical compounds, weighed amounts can be placed individually in 25 mL glass vials and dissolved in a volume of 97:3 (v/v) acetone/DMSO to obtain 12× stock solutions. […] Application solutions can be prepared by adding an appropriate amount of each stock solution (e.g., 1 mL) and diluted to the appropriate final concentrations with the addition of 10 mL of an aqueous mixture of 1.5% (v/v) COC so that the final spray solutions contain 1.25% (v/v) COC. When technical materials are used, the concentrated stock solutions can be added to the spray solutions so that the final acetone and DMSO concentrations of the application solutions are 16.2% and 0.5%, respectively.
(§9) For treatments comprised of formulated and technical compounds, weighed amounts of the technical materials can be placed individually in 25 mL glass vials and dissolved in a volume of 97:3 (v/v) acetone/DMSO to obtain 12× stock solutions, and measured amounts of the formulated compounds can be placed individually in 25 mL glass vials and diluted in a volume of 1.5% (v/v) COC or water to obtain 12× stock solutions. […] Application solutions can be prepared by adding an appropriate amount of each stock solution (e.g., 1 mL) and diluted to the appropriate final concentrations with the addition of an appropriate amount of an aqueous mixture of 1.5% (v/v) COC so that the final spray solutions contain 1.25% (v/v) COC. As required, additional water and/or 97:3 (v/v) acetone/DMSO can be added to individual application solutions so that the final acetone and DMSO concentrations of the application solutions being compared are 8.1% and 0.25%, respectively.
(§10) All stock solutions and applications solutions were visually inspected for compound compatibility prior to application. Spray solutions were applied to the soil with an overhead Mandel track sprayer equipped with a 8002E nozzles calibrated to deliver 187 L/ha over an application area of 0.503 m^2 at a spray height of 18 inches (46 cm) above average pot height. […]

[3] = test system: ECHCO (Echinochloa colonum, junglerice); assay type: in vivo, Echinochloa colonum (L.) Link; settings: Diuron 280 g ai/ha
Excerpt: as §1, §2, §3, §4, §5, §6

[4] = test system: ABUTH (Abutilon theophrasti, velvetleaf); assay type: in vivo, Abutilon theophrasti Medik.
Excerpt: as §1, §2, §3, §4, §7, §8
as §9, with “As required, additional water and/or 97:3 (v/v) acetone/DMSO can be added to individual application solutions so that the final acetone and DMSO concentrations of the application solutions being compared are 8.1% and 0.25%, respectively.” left out

[5] = test system: BRAPP (Brachiaria platyphylla, broadleaf signalgrass); assay type: in vivo, Brachiaria platyphylla (Groseb.) Nash; settings: 28 DAA
Excerpt: as §1, §2, §3, §4, §7, §8, §9, §10

[6] = test system: ECHCG (Echinochloa crus-galli, barnyardgrass); assay type: in vivo, Echinochloa crus-galli (L.) P. Beauv.
Excerpt: as §1, §2, §3, §4, §7
For treatments comprised of technical compounds, weighed amounts can be placed individually in 25 mL glass vials and dissolved in a volume of 97:3 (v/v) acetone/DMSO to obtain 12× stock solutions. […]
as §6

CN(C)C(=O)Nc1ccc(Cl)c(Cl)c1 [Diuron, N′-(3,4-dichlorophenyl)-N,N-dimethylurea, reference compound]
Visual Weed Control (%)-29 DAA SETVI Obs [1]: 0%
Visual Weed Control (%)-29 DAA SETFA Obs [2]: 5%
Visual Weed Control (%)-29 DAA ECHCO Obs [3]: 15%
Visual Weed Control (%)-29 DAA ABUTH Obs ([4]; Diuron 280 g ai/ha): 30%
Visual Weed Control (%)-29 DAA ABUTH Obs ([4]; Diuron 560 g ai/ha): 70%
Visual Weed Control (%)-29 DAA ABUTH Obs ([4]; Diuron 1120 g ai/ha): 90%
Visual Weed Control (%)-28 DAA BRAPP Obs ([5]; Diuron 280 g ai/ha): 0%
Visual Weed Control (%)-28 DAA BRAPP Obs ([5]; Diuron 560 g ai/ha): 35%
Visual Weed Control (%)-28 DAA ECHCG Obs ([6]; Diuron 280 g ai/ha): 25%
Visual Weed Control (%)-28 DAA ECHCG Obs ([6]; Diuron 560 g ai/ha): 65%
